In patent publication US20230108730A1, “BIENZYMATIC BIOSENSOR FOR THE DETECTION OF LACTULOSE IN BLOOD” (TRIVIUMVET DESIGNATED ACTIVITY COMPANY, priority 2020, published 2023):
Values belong to the molecule of their own block, whether it stands above or below them.

Key:
[1] = Plasma lactulose after oral lactulose solution in canine NSAID-induced gastric ulceration model (ion chromatography); type: in vivo, dog; settings: for concentration at 10 min / concentration at 20 min / concentration at 30 min / concentration at 60 min: dog, plasma, po; for concentration at 20 min: 20 min after 0.6-0.7 g/kg PO; for concentration at 30 min: 30 min after 0.6-0.7 g/kg PO; for concentration at 60 min: 60 min after 0.6-0.7 g/kg PO
Method: A model of canine gastric ulceration was developed using a combination of orally administered nonsteroidal anti-inflammatory drugs (NSAIDs) at doses appropriate to induce ulceration without concomitant renal or hepatic dysfunction. Healthy laboratory dogs (14.0 to 16.7 kg) were screened to exclude individuals with clinically silent disorders, including gastrointestinal disease. Under the GCP study protocol, each dog was administered 50 ml of a 20% w/v lactulose solution orally (0.6-0.7 g/kg lactulose PO) following a 24-h fast at baseline and following a period of ulcer induction. On each occasion, peripheral venous blood was drawn from each dog into 1.3-ml Sarstedt blood tubes containing lithium heparin as an anticoagulant at 10, 20, 30 and 60 minutes following bolus administration of the lactulose solution. The Sarstedt tube product number was 41.1393.005. Blood samples were centrifuged for 15 minutes at 3000 rpm, before decanting plasma into plain tubes; plasma was stored at −80° C. until analysis. Prior to lactulose administration, endoscopy was performed on each dog, and the presence and extent of gastric ulceration were assessed by a blinded specialist veterinary gastroenterologist. Following confirmation of the presence of ulceration, NSAID administration was discontinued and post ulcer induction lactulose administration and plasma collection were performed. Frozen plasma samples were transported under GMP conditions at −80° C. to an analytical facility. Following thawing, the samples were analysed for lactulose concentration using an ion chromatography method previously developed using blank plasma samples spiked with known concentrations of lactulose. [table] Sample preparation for Ion Chromatography analysis: 200 μL aliquots of liquid from each of the plasma samples were diluted to 1000 μL with acetonitrile. The samples were vortexed thoroughly, followed by centrifugation at 15000 rpm for 10 minutes. The supernatants were analysed directly by ion chromatography. Analysis was performed in duplicate. Calibration Curve: Calibration curves were prepared in the blank plasma sample. Briefly, plasma samples were spiked with varying concentrations of lactulose and were then diluted with acetonitrile to the required final concentration range. The samples were then processed as described above before analysis by ion chromatography. Samples were analysed in duplicate. Linearity was established for plasma lactulose concentrations in the range 5 to 250 μM.

[2] = Electrochemical dual-enzyme (β-Gal/GalOx) biosensor quantification of lactulose in canine plasma sample by amperometry; type: in vivo; settings: dog, oral, canine plasma sample CAN 84049 D6 t60, standard additions calibration, read-out: lactulose concentration in the original plasma sample
Source text: An electrochemical biosensor for the indirect detection of lactulose in buffer and plasma samples used an electrocatalytic surface as the working electrode which was modified with a dual enzyme system comprising β-galactosidase (β-Gal) and galactose oxidase (GalOx). The electrochemical biosensor comprised a 3-electrode system of a working electrode (the dual enzyme-modified Pt electrode), an Ag/AgCl reference electrode, and a Pt wire as auxiliary electrode.
The enzymes were immobilised on the surface of the working electrode using a cross-linker. A 2 mm diameter Pt disk was used as the electrocatalytic surface for the working electrode. […]
The three electrodes were immersed in 2 mL of PBS solution 0.1 M pH 7.3 at 35° C. to comprise the electrochemical cell and an oxidative potential of +600 mV was applied between the working and reference electrodes for quantification of lactulose in a canine plasma sample by amperometry, as illustrated in FIG. 5. […]
Following this 200 μL of canine plasma (CAN 84049 D6 t60) was added to the cell and the current response was monitored for a period of 400 s.
Three sequential additions of a volume of 1 mM Lactulose standard (V1=75 μL; V2=80 μL; V3=85 μL) were then added to the cell and the current response was monitored for 400 s after each addition. […]

H-2 receptors = H-2 receptors (Homo sapiens, UniProt P25021); settings: human subjects, administered intravenously; cited from earlier work
Chain of H-2 receptors (P25021 whole entry): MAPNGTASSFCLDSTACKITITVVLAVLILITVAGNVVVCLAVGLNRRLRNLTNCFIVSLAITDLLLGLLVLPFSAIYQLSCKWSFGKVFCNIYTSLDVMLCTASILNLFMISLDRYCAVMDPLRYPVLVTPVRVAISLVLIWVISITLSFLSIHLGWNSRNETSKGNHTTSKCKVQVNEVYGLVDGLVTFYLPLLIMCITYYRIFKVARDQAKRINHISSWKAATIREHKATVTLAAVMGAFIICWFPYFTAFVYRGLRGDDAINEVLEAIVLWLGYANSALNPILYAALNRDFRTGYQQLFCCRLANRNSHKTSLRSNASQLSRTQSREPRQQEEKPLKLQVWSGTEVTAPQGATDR

gastric ulceration = assay: Omeprazole treatment of study dogs with NSAID-induced gastric ulceration; type: in vivo, dog; settings: 0.5 to 1.0 mg/kg twice daily for 3 weeks
gastric ulcers = settings: foals; ulcers associated with intravenous high-dose NSAIDs; cited from earlier work
[3] = ulceration Moderate to severe (n = 4)

- concentration at 60 min [2]: 275 to 400 µM
Molecule: OC[C@H]1O[C@@H](O[C@@H]2[C@@H](CO)OC(O)(CO)[C@H]2O)[C@H](O)[C@@H](O)[C@H]1O (mixture of isomers) [Lactulose, lactulose]
- concentration at 10 min ([1]; 10 min after 0.6-0.7 g/kg PO (50 ml 20% w/v), endoscopic grade of gastric ulceration Absent (n = 8)): 24.9 µM
- concentration at 10 min ([1]; 10 min after 0.6-0.7 g/kg PO, ulceration Mild (n = 4)): 44.6 µM
- concentration at 10 min ([1]; 10 min after 0.6-0.7 g/kg PO, ulceration Moderate to severe (n = 4)): 60.9 µM
- concentration at 20 min ([1]; ulceration Absent (n = 8)): 39.1 µM
- concentration at 20 min ([1]; ulceration Mild (n = 4)): 68.7 µM
- concentration at 20 min [1, 3]: 94.3 µM
- concentration at 30 min ([1]; ulceration Absent (n = 8)): 46 µM
- concentration at 30 min ([1]; ulceration Mild (n = 4)): 88.2 µM
- concentration at 30 min [1, 3]: 144 µM
- concentration at 60 min ([1]; ulceration Absent (n = 8)): 61.1 µM
- concentration at 60 min ([1]; ulceration Mild (n = 4)): 110 µM
- concentration at 60 min [1, 3]: 184 µM
- rate and extent of systemic lactulose absorption ([1]; following ulcer induction versus baseline, each dog): increased significantly

Molecule: NC(N)=Nc1nc(CSCCC(N)=NS(N)(=O)=O)cs1 [famotidine]
- time to occurrence of tolerance (H-2 receptors): 12 to 72 h

Molecule: COc1ccc2[nH]c([S+]([O-])Cc3ncc(C)c(OC)c3C)nc2c1 (centres unmarked) [omeprazole]
- time to resolution of laboratory evidence of gastric ulceration (anemia, inflammatory leucogram, hypoalbuminaemia) (gastric ulceration): ≤ 3 weeks

Molecule: sucralfate
- effect on gastric ulcers (gastric ulcers): protective effect
